Test results taken from patent US20240365773A1, “USE OF APOPTOSIS INHIBITORS FOR COLD STORAGE OF BLOOD PLATELETS” (DRK-BLUTSPENDEDIENST BADEN-WUERTTEMBERG-HESSEN GGMBH, priority 2021, published 2024).
“Also recorded” adds a separate entry of the source. Peptide text beside a SMILES is read from it. * marks the point of attachment. Cbz = O=C(OCc1ccccc1)*; CH2F = FC*

Legend:
Format in all cases: cell-based, human
[1] = test system: PLTs of 4° C. stored APCs; assay: PLT viability of cold stored APCs treated with apoptosis inhibitors; details: for % PLT viability (day 10): 4° C. stored APC; for % viable cells: APCs stored at 4° C., G04 150 μM, forskolin 0.75 μM
Procedure: (§1) APCs were collected from healthy volunteers according to the German guidelines for haemotherapy. Ten individuals donated two units of APCs collected with FENWAL AMICUS (Amicus, Fresenius Kabi, Bad Homburg, Germany) and stored in plasma or in PAS (SSP+, Macopharma, Langen, Germany) at 35% final plasma concentration at 4° C. and RT.
(§2) Appropriate concentration for the inhibitors was determined prior to experiments, by titrating different concentrations. Directly after the collection, the APCs were stored for an hour without agitation. APCs were split further into different culture bags under aseptic conditions and stored in sterile, oxygen permeable bag (Fresenius Kabi A G, Bad Homburg, Germany). APCs were treated with 150 μM RhoA inhibitor G04, 0.75 μM […] (PKA) activator forskolin or 40 μM Caspase-9 inhibitor z-LEHD-fmk. […] APCs without any additions were used as a negative control. After 2 hours of treatment at RT, all the samples except the control at RT, were stored at 4° C. under constant gentle agitation. All samples were activated with thrombin receptor-activating peptide TRAP ([…], HART Biologicals) prior to measurements.

[2] = test system: PLTs of 4° C. stored APCs; assay: Measurement of mitochondrial transmembrane potential; details: APCs stored at 4° C.
Procedure: as §1, §2

[3] = test system: cold-stored PLTs; assay: Platelet adhesion on fibrinogen coated coverslips; details: for Number of adherent cells (day 4) / Number of adherent cells (day 7): cold-stored PLTs, TRAP; for Number of adherent cells (day 4): day 4, fibrinogen coated coverslips; for Number of adherent cells (day 7): day 7, fibrinogen coated coverslips
Procedure: Coverslips (Corning, New York, USA) were coated with […] of fibrinogen (Sigma Aldrich, Munich, Germany). After 4 and 7 days of storage PLTs (1×10^8 PLTs/mL) were seeded on coverslips and incubated for 1 hour at room temperature (RT) with TRAP (0.1 mM, Hart Biologicals, Hartlepool, UK). The adherent cells were fixed with 4% paraformaldehyde for 20 minutes (min) at RT. Images were captured from 5 different microscopic fields/coverslips (×100, Olympus IX73, Tokyo, Japan).

[4] = test system: PLTs from APCs; assay: Determination of apoptosis (Annexin V-FITC staining); details: for % Apoptosis (day 10): 4° C. stored APC; for % apoptotic cells: APCs stored at 4° C., forskolin 0.75 μM, z-LEHD-fmk 40 μM
Procedure: as §1, §2
PLTs from APCs were washed, resuspended with 1 mM CaCl2 and stained with Annexin V-FITC (Beckman Coulter) for 60 min at RT. Freshly isolated PLTs were incubated with 10 μM ionomycin (Abcam, Cambridge, UK) and used as positive control.

[5] = test system: PLTs of 4° C. stored APCs; assay: Platelet aggregation (light transmission PLT aggregation assay); details: for % PLT aggregation (day 7): 4° C. stored APC
Procedure: as §1, §2
PLT function was analyzed by FC and light transmission PLT aggregation assay (LTA) using a 4-channel-aggregometer (Labitec, Ahrensburg, Germany). Collagen (8 μg/ml), ristocetin ([…]) (both Molab, Langenfeld, Germany) or ADP (80 μM, Nycomed, Konstanz, Germany) were used as inductors.

[6] = test system: cold-stored PLTs; assay: Thrombin generation (calibrated automated thrombogram); details: each storage time point, vs buffer/untreated
Procedure: Thrombin generation was quantified performing a fluorescence based-assay using a calibrated automated thrombogram system (CAT, Stago, Maastricht, Netherlands). The fluorescence signal was acquired for 60 min with a 390-nm […] excitation/460-nm emission filter set.

[7] = test system: cold-stored PLTs; assay: Clot formation (thromboelastometer); details: vs buffer/untreated
Procedure: The clot formation was analysed using a 6-channel thromboelastometer device (Clot Pro, Enicor, Germany) and parameters were automatically calculated by dedicated software.

[8] = test system: PLTs of 4° C. stored APCs; assay: Functional analysis of cold stored APCs (all functional parameters); details: treated vs untreated
Procedure: PLTs (10×10^6/mL) were incubated with TRAP6 (20 μM) for 30 min at 37° C., fixed with 4% PFA for 20 min at RT. The expression of CD62P (CLBThromb/6, Beckman Coulter) and CD63 (CLBGran/12, Beckman Coulter) was determined by FC. The conformational changes of glycoproteins (GPs) IIb/IIIa complex upon activation with TRAP were detected by PAC-1-antibody (BD Bioscience) using FC. PLT function was analyzed by FC and light transmission PLT aggregation assay (LTA) using a 4-channel-aggregometer (Labitec, Ahrensburg, Germany). Collagen (8 μg/ml), ristocetin ([…]) (both Molab, Langenfeld, Germany) or ADP (80 μM, Nycomed, Konstanz, Germany) were used as inductors.

Row | Structure (SMILES) | % PLT viability (day 10) ([1]; day 10) | % viable cells ([1]; day 7) | % viable cells ([1]; day 10, z-LEHD-fmk 40 μM) | mitochondrial transmembrane potential ΔΨm MFI ([2]; day 7) | mitochondrial transmembrane potential ΔΨm MFI ([2]; day 10) | Number of adherent cells (day 4) [3] | Number of adherent cells (day 7) [3] | % Apoptosis (day 10) ([4]; day 10) | % apoptotic cells ([4]; day 7) | % apoptotic cells ([4]; day 10, G04 150 μM) | % PLT aggregation (day 7) [5] | PLT viability / survival (in words) ([1]; cold stored APCs) | PLT adhesion, number of adherent cells (in words) ([3]; cold-stored PLTs after 4 and 7 days of storage, vs buffer/untreated) | apoptosis (in words) ([4]; cold stored APCs) | thrombin generation (AUC, area under the curve), in words [6] | PLT aggregation (in words) ([5]; cold stored APCs, day 4) | clot formation (MCF, maximum clot firmness), in words [7] | PLT functions / functional parameters (overall, in words) [8]
1 | C=C[C@@]1(C)CC(=O)[C@]2(O)[C@@]3(C)[C@@H](O)CCC(C)(C)[C@@H]3[C@H](O)[C@H](OC(C)=O)[C@@]2(C)O1 [forskolin] | 58.95% | 87.1% | 58.95% | 17.88 MFI | 11.02 MFI | No significant effect | No significant effect | 33% | 9.3% | 33% | No significant effect | – | – | – | – | – | – | –
2 | COC(=O)CC[C@H](NC(=O)[C@H](CC(C)C)NC(=O)OCc1ccccc1)C(=O)N[C@@H](Cc1cnc[nH]1)C(=O)N[C@@H](CC(=O)OC)C(=O)CF [z-LEHD-fmk] (Cbz-LE(OMe)HD(OMe)-CH2F) | 60.38% | – | 60.38% | – | 6.26 MFI | No significant effect | No significant effect | 39% | 9.85% | 39.00% | No significant effect | partially restores PLT viability | no significant impact | decreases apoptosis | no significant impact | tendency of decreased PLT aggregation was observed at day 4 after the treatment, but it was not significant | no significant impact | no significant impact; also recorded: does not affect the diminished PLT function; also recorded: does not affect PLT functions
